{"source": "patent US20240116985A1", "about": "“STAPLED PEPTIDES AND METHODS THEREOF” (priority 2020, published 2024)", "key": {"CHI Log D procedure": {"test": "CHI Log D procedure", "type": "physicochemical", "conditions": "for chromatographic logD: pH 7.4, CHI Log D; for CHI Log D: pH 7.4"}, "Solubility in PBS": {"test": "Solubility in PBS", "type": "physicochemical", "procedure,_shortened": "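Steps: ultracentrifuge the peptide PBS solution, inject the supernatant on HPLC, inject a 50 μM peptide DMSO solution as reference, then calculate solubility as area ratio (PBS/DMSO) × 50 uM.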"}, "[1]": {"biological_target": "T1, full-length beta-Catenin (Uniprot ID P35222) (Homo sapiens, UniProt P35222)", "T1 construct": "10 nM full-length beta-Catenin (Uniprot ID P35222)", "T1 sequence (P35222 1-781)": "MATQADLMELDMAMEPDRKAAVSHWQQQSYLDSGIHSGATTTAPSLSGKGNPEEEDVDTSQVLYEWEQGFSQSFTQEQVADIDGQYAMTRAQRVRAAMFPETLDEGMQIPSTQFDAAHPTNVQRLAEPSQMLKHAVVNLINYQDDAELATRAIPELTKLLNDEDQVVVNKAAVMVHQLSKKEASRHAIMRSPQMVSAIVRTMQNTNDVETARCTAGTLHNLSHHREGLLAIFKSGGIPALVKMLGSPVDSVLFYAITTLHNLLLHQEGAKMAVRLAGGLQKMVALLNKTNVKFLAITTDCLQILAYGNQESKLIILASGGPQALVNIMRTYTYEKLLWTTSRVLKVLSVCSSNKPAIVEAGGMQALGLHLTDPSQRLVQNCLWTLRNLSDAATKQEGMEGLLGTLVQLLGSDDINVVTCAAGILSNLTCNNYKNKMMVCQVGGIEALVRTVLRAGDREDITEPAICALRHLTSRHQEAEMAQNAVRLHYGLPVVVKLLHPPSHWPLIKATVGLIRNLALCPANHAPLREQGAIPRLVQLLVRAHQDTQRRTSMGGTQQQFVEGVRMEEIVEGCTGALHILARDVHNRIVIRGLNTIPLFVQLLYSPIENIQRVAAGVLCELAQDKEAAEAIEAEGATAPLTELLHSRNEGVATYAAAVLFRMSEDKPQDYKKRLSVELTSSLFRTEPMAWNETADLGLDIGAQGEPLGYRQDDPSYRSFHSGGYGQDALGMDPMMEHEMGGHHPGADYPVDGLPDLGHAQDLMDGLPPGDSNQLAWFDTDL", "test": "Fluorescence polarization IC50 (beta-catenin / 5FAM-TCF4 10-53 competition)", "type": "binding"}, "[2]": {"conditions": "fluorescence polarization, beta-catenin, read-out: FP EC50"}}, "note": "Read-outs that look alike come from different tables or passages of the source.", "data": [{"compound": "CC(=O)N1CCC[C@]12CC=CCCCC1(CCCC=CCCCOC(=O)N3CC[C@@](C(=O)N[C@@H](Cc4ccc5ccccc5c4)C(=O)N[C@@H](Cc4csc5ccccc45)C(=O)N[C@@H](Cc4c[nH]cn4)C(N)=O)(C3)NC(=O)[C@H](CC(N)=O)NC(=O)[C@H](Cc3ccccc3)NC(=O)[C@H](C)NC(=O)[C@H](C)NC(=O)[C@H](CC(=O)O)NC(=O)[C@H](CC(=O)O)NC1=O)NC(=O)[C@H](CC(C)(C)C)NC(=O)[C@H](CC(=O)O)NC2=O", "note": "(stereo partly drawn) [I-795, Ac-PL3-Asp-Npg-B5-Asp-Asp-Ala-Ala-Phe-Asn-PyrS2-2NapA-BztA-His-NH2]", "values": [{"measurement": "chromatographic logD", "setting": "CHI Log D procedure", "value": 2.39}, {"measurement": "Solubility", "setting": "Solubility in PBS", "value": 10, "unit": "µM"}, {"measurement": "IC50", "setting": "[1]; read-out: beta-Catenin FP IC50", "value": 176, "unit": "nM"}]}, {"compound": "CC(=O)N1CCC[C@]12CC=CCCCC1(CCCC=CCCCOC(=O)N3CC[C@@](C(=O)N[C@@H](Cc4ccsc4)C(=O)N[C@@H](Cc4csc5ccccc45)C(=O)N[C@@H](Cc4c[nH]cn4)C(N)=O)(C3)NC(=O)[C@H](CC(N)=O)NC(=O)[C@H](CC(=O)O)NC(=O)[C@H](C)NC(=O)[C@H](C)NC(=O)[C@H](CC(=O)O)NC(=O)[C@H](CC(=O)O)NC1=O)NC(=O)[C@H](CC(C)(C)C)NC(=O)[C@H](Cc1ccccc1)NC2=O", "note": "(stereo partly drawn) [I-796, Ac-PL3-Phe-Npg-B5-Asp-Asp-Ala-Ala-Asp-Asn-PyrS2-3Thi-BztA-His-NH2]", "values": [{"measurement": "chromatographic logD", "setting": "CHI Log D procedure", "value": 2.45}, {"measurement": "Solubility", "setting": "Solubility in PBS; Solubility (uM)", "value": 35, "unit": "µM"}, {"measurement": "IC50", "setting": "[1]; read-out: FP EC50", "value": 8140, "unit": "nM"}]}, {"compound": "CC(=O)N1CCC[C@]12CC=CCCCC1(CCCC=CCCCOC(=O)N3CC[C@@](C(=O)N[C@@H](Cc4ccsc4)C(=O)N[C@@H](Cc4csc5ccccc45)C(=O)N[C@@H](CCC(N)=O)C(N)=O)(C3)NC(=O)[C@H](CC(N)=O)NC(=O)[C@H](Cc3cscn3)NC(=O)[C@H](C)NC(=O)[C@H](C)NC(=O)[C@H](CC(=O)O)NC(=O)[C@H](CC(=O)O)NC1=O)NC(=O)[C@H](CC(C)(C)C)NC(=O)[C@H](CC(=O)O)NC2=O", "note": "(stereo partly drawn) [I-812, Ac-PL3-Asp-Npg-B5-Asp-Asp-Ala-Ala-4Thz-Asn-PyrS2-3Thi-BztA-Gln-NH2]", "values": [{"measurement": "chromatographic logD", "setting": "CHI Log D procedure", "value": 1.9}, {"measurement": "Solubility", "setting": "Solubility in PBS; Solubility (uM)", "value": 47, "unit": "µM"}, {"measurement": "IC50", "setting": "[1]; read-out: beta-Catenin FP IC50", "value": 33, "unit": "nM"}]}, {"compound": "CC(=O)N1CCC[C@]12CC=CCCCC1(CCCC=CCCCCOC(=O)N3CC[C@@](C(=O)N[C@@H](Cc4ccsc4)C(=O)N[C@@H](Cc4csc5ccccc45)C(=O)N[C@@H](Cc4c[nH]cn4)C(=O)N[C@@H](C)C(N)=O)(C3)NC(=O)[C@H](CC(N)=O)NC(=O)[C@H](Cc3ccccc3)NC(=O)[C@H](C)NC(=O)[C@H](C)NC(=O)[C@H](CC(=O)O)NC(=O)[C@H](CC(=O)O)NC1=O)NC(=O)[C@H](CC(C)(C)C)NC(=O)[C@H](CC(=O)O)NC2=O", "note": "(stereo partly drawn) [I-828, Ac-PL3-Asp-Npg-B5-Asp-Asp-Ala-Ala-Phe-Asn-PyrS3-3Thi-BztA-His-Ala-NH2]", "values": [{"measurement": "CHI Log D", "setting": "CHI Log D procedure", "value": 2.137}, {"measurement": "Solubility", "setting": "Solubility in PBS", "value": 40, "unit": "µM"}, {"measurement": "IC50", "setting": "[1]; [2]", "value": 13, "unit": "nM"}, {"measurement": "IC50", "setting": "[1]; read-out: beta-Catenin FP IC50", "value": 13, "unit": "nM"}]}, {"compound": "CC(=O)N1CCC[C@]12CC=CCCCC1(CCCC=CCCCOC(=O)N3CC[C@@](C(=O)N[C@@H](Cc4ccsc4)C(=O)N[C@@H](Cc4csc5ccccc45)C(=O)N[C@@H](Cc4c[nH]cn4)C(N)=O)(C3)NC(=O)[C@H](CC(N)=O)NC(=O)[C@H](Cc3ccccc3)NC(=O)[C@H](C)NC(=O)[C@H](C)NC(=O)[C@H](Cc3ccc(O)cc3)NC(=O)[C@H](CC(=O)O)NC1=O)NC(=O)[C@H](CC(C)(C)C)NC(=O)[C@H](CC(=O)O)NC2=O", "note": "(stereo partly drawn) [I-843, Ac-PL3-Asp-Npg-B5-Asp-Tyr-Ala-Ala-Phe-Asn-PyrS2-3Thi-BztA-His-NH2]", "values": [{"measurement": "chromatographic logD", "setting": "CHI Log D procedure", "value": 2.49}, {"measurement": "Solubility", "setting": "Solubility in PBS", "value": 10, "unit": "µM"}, {"measurement": "IC50", "setting": "[1]; read-out: beta-Catenin FP IC50", "value": 154, "unit": "nM"}]}, {"compound": "CC(=O)N1CCC[C@]12CC=CCCCC1(CCCC=CCCCOC(=O)N3CC[C@@](C(=O)N[C@@H](Cc4ccsc4)C(=O)N[C@@H](Cc4csc5ccccc45)C(=O)N[C@@H](Cc4c[nH]cn4)C(N)=O)(C3)NC(=O)[C@H](CC(N)=O)NC(=O)[C@H](Cc3ccccc3)NC(=O)[C@H](C)NC(=O)[C@H](C)NC(=O)[C@H]([C@@H](C)O)NC(=O)[C@H](CC(=O)O)NC1=O)NC(=O)[C@H](CC(C)(C)C)NC(=O)[C@H](CC(=O)O)NC2=O", "note": "(stereo partly drawn) [I-845, Ac-PL3-Asp-Npg-B5-Asp-Thr-Ala-Ala-Phe-Asn-PyrS2-3Thi-BztA-His-NH2]", "values": [{"measurement": "chromatographic logD", "setting": "CHI Log D procedure", "value": 2.42}, {"measurement": "Solubility", "setting": "Solubility in PBS", "value": 10, "unit": "µM"}, {"measurement": "IC50", "setting": "[1]; read-out: beta-Catenin FP IC50", "value": 7, "unit": "nM"}]}, {"compound": "CC(=O)N1CCC[C@]12CC=CCCCC1(CCCC=CCCCOC(=O)N3CC[C@@](C(=O)N[C@@H](Cc4ccsc4)C(=O)N[C@@H](Cc4csc5ccccc45)C(N)=O)(C3)NC(=O)[C@H](CC(N)=O)NC(=O)[C@H](Cc3ccccc3)NC(=O)[C@H](C)NC(=O)[C@H](C)NC(=O)[C@H]([C@@H](C)O)NC(=O)[C@H](CC(=O)O)NC1=O)NC(=O)[C@H](CC(C)(C)C)NC(=O)[C@H](CC(=O)O)NC2=O", "note": "(stereo partly drawn) [I-860, Ac-PL3-Asp-Npg-B5-Asp-Thr-Ala-Ala-Phe-Asn-PyrS2-3Thi-BztA-NH2]", "values": [{"measurement": "CHI Log D", "setting": "CHI Log D procedure", "value": 2.722}, {"measurement": "Solubility", "setting": "Solubility in PBS", "value": 10, "unit": "µM"}, {"measurement": "IC50", "setting": "[1]; [2]", "value": 61, "unit": "nM"}, {"measurement": "IC50", "setting": "[1]; read-out: beta-Catenin FP IC50", "value": 61, "unit": "nM"}]}]}
